Experimental findings from patent publication US9260467B2, “Sialic acid dimers” (priority 2011, dated 2016) are described below.

The target in this test is T1, Siglec-2 (CD22) (Homo sapiens, UniProt P20273).
T1 sequence (P20273 20-847): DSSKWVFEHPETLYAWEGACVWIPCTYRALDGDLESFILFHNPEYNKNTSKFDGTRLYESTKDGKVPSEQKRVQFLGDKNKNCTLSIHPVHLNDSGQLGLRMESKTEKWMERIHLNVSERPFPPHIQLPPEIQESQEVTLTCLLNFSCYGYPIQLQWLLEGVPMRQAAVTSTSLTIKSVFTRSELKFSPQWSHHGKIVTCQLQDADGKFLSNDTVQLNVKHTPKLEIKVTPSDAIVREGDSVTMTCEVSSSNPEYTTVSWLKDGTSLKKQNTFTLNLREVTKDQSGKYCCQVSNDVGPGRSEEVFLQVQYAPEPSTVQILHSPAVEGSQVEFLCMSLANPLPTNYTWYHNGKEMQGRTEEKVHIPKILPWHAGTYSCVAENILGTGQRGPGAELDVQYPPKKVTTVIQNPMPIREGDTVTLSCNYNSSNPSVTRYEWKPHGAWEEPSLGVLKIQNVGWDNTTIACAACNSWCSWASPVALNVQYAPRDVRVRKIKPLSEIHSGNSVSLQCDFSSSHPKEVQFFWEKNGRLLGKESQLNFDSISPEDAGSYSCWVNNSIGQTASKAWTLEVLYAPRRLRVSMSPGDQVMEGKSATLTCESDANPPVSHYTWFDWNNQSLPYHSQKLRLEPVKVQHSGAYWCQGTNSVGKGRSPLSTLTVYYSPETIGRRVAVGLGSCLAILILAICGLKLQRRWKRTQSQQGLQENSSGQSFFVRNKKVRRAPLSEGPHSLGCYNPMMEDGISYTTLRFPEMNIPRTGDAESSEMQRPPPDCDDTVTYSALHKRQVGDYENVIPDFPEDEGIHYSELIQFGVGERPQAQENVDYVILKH
Put plainly: new affinity assay: displacement of biotinylated compound 155 from sialidase-treated Daudi cells, FACS with streptavidin-PE. Conditions: Table II; rIP values set relative to compound 38; Daudi cells, displacement of compound 155. The test is classed as binding. Set-up: endogenous in cells; host or cells: Daudi (human B-cell lymphoma line). The protocol:
To determine the affinity of the compound of the formula (I), approximately 5×10^6 to 2×10^8 cells of the human B-cell lymphoma line “Daudi” were incubated with sialidase (A. ureafaciens) at 37° C. for 1 h (final concentration 0.1 unit/ml). […] Batches of 1-2×10^6 cells were transferred to sample vessels, and incubated on ice for 15 min with serial concentrations (10-fold dilutions, 1 mM to 1×10^−7 mM) of the substance under measurement (inhibitor). The reaction volume was 50 μl. Then 50 microliters of compound 155 (4-micromolar) were added, and incubation took place for 20 min Washing with FACS buffer (PBS, 0.1 BSA, 0.01% sodium azide) was followed by incubation with streptavidin-PE in the dark for 15 min, followed by washing and measurement of the bound amount of […] via the streptavidin-PE in the FACS. For the determination of 0% displacement of the compound 155, cells without inhibitor were measured. For the determination of 100% displacement, cells were measured without compound 155 and without inhibitor. For each assay, four substances and one reference were measured. The IC50 values determined in each assay were subsequently converted into values of rIP (relative Inhibitory Potency). […]
The molecule `CC(=O)N[C@H]1[C@H]([C@H](O)[C@H](O)CNC(=O)c2ccc(-c3ccccc3)cc2)O[C@@](OCCCSCCNC(=O)CSSCC(=O)NCCSCCCO[C@]2(C(=O)[O-])C[C@H](O)[C@@H](NC(C)=O)[C@H]([C@H](O)[C@H](O)CNC(=O)c3ccc(-c4ccccc4)cc3)O2)(C(=O)[O-])C[C@@H]1O.[Na+].[Na+]` [Compound 13] gave a rIP of 251.

Regarding `CC(=O)N[C@H]1[C@H]([C@H](O)[C@H](O)CNC(=O)c2ccc(-c3ccccc3)cc2)O[C@@](OCCCSCCC(=O)NCCCCCCNC(=O)CCSCCCO[C@]2(C(=O)[O-])C[C@H](O)[C@@H](NC(C)=O)[C@H]([C@H](O)[C@H](O)CNC(=O)c3ccc(-c4ccccc4)cc3)O2)(C(=O)[O-])C[C@@H]1O.[Na+].[Na+]` [Compound 43], the rIP is given as 15. `CC(=O)N[C@H]1[C@H]([C@H](O)[C@H](O)CNC(=O)c2ccc(-c3ccc(C)cc3)cc2)O[C@@](OCCCSCCNC(=O)c2ccc(C(=O)NCCSCCCO[C@]3(C(=O)[O-])C[C@H](O)[C@@H](NC(C)=O)[C@H]([C@H](O)[C@H](O)CNC(=O)c4ccc(-c5ccc(C)cc5)cc4)O3)cc2)(C(=O)[O-])C[C@@H]1O.[Na+].[Na+]` [Compound 76]: the rIP is listed as 188.

`CC(=O)N[C@H]1[C@H]([C@H](O)[C@H](O)CNC(=O)c2ccc(-c3ccccc3)cc2)O[C@](C(=O)[O-])(n2cc(CCCCNC(=O)c3ccc(C(=O)NCCCCc4cn([C@]5(C(=O)[O-])C[C@H](O)[C@@H](NC(C)=O)[C@H]([C@H](O)[C@H](O)CNC(=O)c6ccc(-c7ccccc7)cc6)O5)nn4)cc3)nn2)C[C@@H]1O.[Na+].[Na+]` [Compound 110] showed a rIP of 12. Under `CC(=O)N[C@H]1[C@H]([C@H](O)[C@H](O)CNC(=O)/C=C/c2ccccc2)O[C@@](OCCCSCCNC(=O)c2ccc(C(=O)NCCSCCCO[C@]3(C(=O)[O-])C[C@H](O)[C@@H](NC(C)=O)[C@H]([C@H](O)[C@H](O)CNC(=O)/C=C/c4ccccc4)O3)cc2)(C(=O)[O-])C[C@@H]1O.[Na+].[Na+]` [Compound 83] stands 73; under `CC(=O)N[C@H]1[C@H]([C@H](O)[C@H](O)CNC(=O)c2ccc(-c3ccccc3)cc2)O[C@@](OCCCSCCNc2c(NCCSCCCO[C@]3(C(=O)[O-])C[C@H](O)[C@@H](NC(C)=O)[C@H]([C@H](O)[C@H](O)CNC(=O)c4ccc(-c5ccccc5)cc4)O3)c(=O)c2=O)(C(=O)[O-])C[C@@H]1O.[Na+].[Na+]` [Compound 51], 299; under `CC(=O)N[C@H]1[C@H]([C@H](O)[C@H](O)CNC(=O)c2ccc(-c3ccccc3)cc2)O[C@@](OCCCSCCNC(=O)CCC(=O)NCCSCCCO[C@]2(C(=O)[O-])C[C@H](O)[C@@H](NC(C)=O)[C@H]([C@H](O)[C@H](O)CNC(=O)c3ccc(-c4ccccc4)cc3)O2)(C(=O)[O-])C[C@@H]1O.[Na+].[Na+]` [Compound 36], 23. With `CC(=O)N[C@H]1[C@H]([C@H](O)[C@H](O)CNC(=O)c2cc3ccccc3s2)O[C@@](OCCCSCCNC(=O)c2ccc(C(=O)NCCSCCCO[C@]3(C(=O)[O-])C[C@H](O)[C@@H](NC(C)=O)[C@H]([C@H](O)[C@H](O)CNC(=O)c4cc5ccccc5s4)O3)cc2)(C(=O)[O-])C[C@@H]1O.[Na+].[Na+]` [Compound 70] the figure was 137.

`CC(=O)N[C@H]1[C@H]([C@H](O)[C@H](O)CNC(=O)c2ccc(-c3ccccc3)cc2)O[C@@](NC(=O)CCCCCNC(=O)c2ccc(C(=O)NCCCCCC(=O)N[C@]3(C(=O)[O-])C[C@H](O)[C@@H](NC(C)=O)[C@H]([C@H](O)[C@H](O)CNC(=O)c4ccc(-c5ccccc5)cc4)O3)cc2)(C(=O)[O-])C[C@@H]1O.[Na+].[Na+]` [Compound 116] came in with a rIP below 1. Under `CC(=O)N[C@H]1[C@H]([C@H](O)[C@H](O)CNC(=O)c2ccc(-c3ccc(O)cc3)cc2)O[C@@](OCCCSCCNC(=O)c2ccc(C(=O)NCCSCCCO[C@]3(C(=O)[O-])C[C@H](O)[C@@H](NC(C)=O)[C@H]([C@H](O)[C@H](O)CNC(=O)c4ccc(-c5ccc(O)cc5)cc4)O3)cc2)(C(=O)[O-])C[C@@H]1O.[Na+].[Na+]` [Compound 67] stands 1959.

The molecule `CC(=O)N[C@H]1[C@H]([C@H](O)[C@H](O)Cn2cc(-c3ccccc3)nn2)O[C@@](OCCCSCCNC(=O)c2ccc(C(=O)NCCSCCCO[C@]3(C(=O)[O-])C[C@H](O)[C@@H](NC(C)=O)[C@H]([C@H](O)[C@H](O)Cn4cc(-c5ccccc5)nn4)O3)cc2)(C(=O)[O-])C[C@@H]1O.[Na+].[Na+]` [Compound 95] registered a rIP of 6. With `CC(=O)N[C@H]1[C@H]([C@H](O)[C@H](O)CNC(=O)c2ccc(-c3ccccc3)cc2)O[C@@](OCCCSCCC(=O)Nc2c(C)c(C)c(NC(=O)CCSCCCO[C@]3(C(=O)[O-])C[C@H](O)[C@@H](NC(C)=O)[C@H]([C@H](O)[C@H](O)CNC(=O)c4ccc(-c5ccccc5)cc4)O3)c(C)c2C)(C(=O)[O-])C[C@@H]1O.[Na+].[Na+]` [Compound 45] the figure was 523; with `CC(=O)N[C@H]1[C@H]([C@H](O)[C@H](O)CNS(=O)(=O)c2ccc(-c3ccccc3)cc2)O[C@@](OCCCSCCNC(=O)c2ccc(C(=O)NCCSCCCO[C@]3(C(=O)[O-])C[C@H](O)[C@@H](NC(C)=O)[C@H]([C@H](O)[C@H](O)CNS(=O)(=O)c4ccc(-c5ccccc5)cc4)O3)cc2)(C(=O)[O-])C[C@@H]1O.[Na+].[Na+]` [Compound 84], 9. Consider `CC(=O)N[C@H]1[C@H]([C@H](O)[C@H](O)CNC(=O)Cc2ccc(-c3ccccc3)cc2)O[C@@](OCCCSCCNC(=O)c2ccc(-c3ccc(C(=O)NCCSCCCO[C@]4(C(=O)[O-])C[C@H](O)[C@@H](NC(C)=O)[C@H]([C@H](O)[C@H](O)CNC(=O)Cc5ccc(-c6ccccc6)cc5)O4)cc3)cc2)(C(=O)[O-])C[C@@H]1O.[Na+].[Na+]` [Compound 128], for which the rIP is reported as 19. With `CC(=O)N[C@H]1[C@H]([C@H](O)[C@H](O)CNC(=O)c2ccc(Cl)cc2)O[C@@](OCCCSCCNC(=O)c2ccc(C(=O)NCCSCCCO[C@]3(C(=O)[O-])C[C@H](O)[C@@H](NC(C)=O)[C@H]([C@H](O)[C@H](O)CNC(=O)c4ccc(Cl)cc4)O3)cc2)(C(=O)[O-])C[C@@H]1O.[Na+].[Na+]` [Compound 72] the figure was 38; with `CC(=O)N[C@H]1[C@H]([C@H](O)[C@H](O)CNC(=O)c2ccc(Oc3ccccc3)cc2)O[C@@](OCCCSCCNC(=O)c2ccc(C(=O)NCCSCCCO[C@]3(C(=O)[O-])C[C@H](O)[C@@H](NC(C)=O)[C@H]([C@H](O)[C@H](O)CNC(=O)c4ccc(Oc5ccccc5)cc4)O3)cc2)(C(=O)[O-])C[C@@H]1O.[Na+].[Na+]` [Compound 63], 20.

On to `CC(=O)N[C@H]1[C@H]([C@H](O)[C@H](O)CNC(=O)c2ccc(-c3ccccc3)cc2)O[C@@](OCCCSCCC(=O)NCCNC(=O)CCSCCCO[C@]2(C(=O)[O-])C[C@H](O)[C@@H](NC(C)=O)[C@H]([C@H](O)[C@H](O)CNC(=O)c3ccc(-c4ccccc4)cc3)O2)(C(=O)[O-])C[C@@H]1O.[Na+].[Na+]` [Compound 46], for which the rIP is 290.

The molecule `CC(=O)N[C@H]1[C@H]([C@H](O)[C@H](O)CNC(=O)c2ccc(-c3ccccc3)cc2)O[C@@](OCCCSCCNC(=O)CC(=O)NCCSCCCO[C@]2(C(=O)[O-])C[C@H](O)[C@@H](NC(C)=O)[C@H]([C@H](O)[C@H](O)CNC(=O)c3ccc(-c4ccccc4)cc3)O2)(C(=O)[O-])C[C@@H]1O.[Na+].[Na+]` [Compound 37] showed a rIP of 177.
